Test results from US5824698A, “Antibacterial dibenzimidazole derivatives” (priority 1994, dated 1998).
In brackets after ≈: the same amount, converted by molar mass. Like-named read-outs stand apart in the source and are kept apart here.

Legend:
Type in all cases: cell-based
[1] = test system: Helicobacter pylori K 1585; assay: Antibacterial activity against Helicobacter pylori in vitro (MIC, agar method); conditions: K1585, H. pylori K 1585, Muller-Hinton agar, 5% sheep blood, incubation 4 days, read-out: Minimum inhibitory concentration (MIC)
Procedure: (§1) The minimum inhibitory concentration (MIC) of the substances investigated against gram-positive and gram-negative strains was determined using standard agar methods. The compounds were dissolved in a small amount of dimethyl sulphoxide, diluted with water and incorporated into liquified DST agar at 50° C. The thus-produced agar plates were used immediately thereafter in the test. The test concentrations lay between 128 and 0.06 μg/ml. The bacterial inoculation solutions were prepared from pre-cultures grown overnight, diluted and applied to the agar surface using an inoculation device (Denley A400). The plates were incubated at 35° C. for 20 hours. The MIC was determined as the lowest concentration of substance which prevented a visible growth. A scarcely visible turbidity and the growth of less than 5 colonies were ignored. The determinations of the antibacterial activities (Tab. 1) were carried out not only for the free bases, but also for the hydrochloride salt of each compound. The same values were obtained within experimental error.
(§2) The antibacterial activities against Helicobacter pylori were carried out analogously to the method described above with the following variations: The compounds were incorporated into Muller-Hinton agar containing 5% sheep blood additive. The test concentrations lay between 10 and 0.1 μg/ml. […]

[2] = test system: Helicobacter pylori PH 81; assay: as above; conditions: PH81, H. pylori PH 81, Muller-Hinton agar, 5% sheep blood, incubation 7 days, read-out: Minimum inhibitory concentration (MIC)
Procedure: as §1, §2

[3] = test system: P. aeroginosa BA; assay: Antibacterial activity in vitro (MIC, standard agar method); conditions: DST agar, 35° C., 20 hours, read-out: Minimum inhibitory concentration (MIC)
Procedure: as §1

[4] = test system: P. aeruginosa 799/61; assay: as above; conditions: Pseudomonas aeruginosa, 799/61, 20 h, read-out: Minimum inhibitory concentration (MIC)
Procedure: as §1

[5] = test system: Staph. aureus 887; assay: as above; conditions: Staphylococcus aureus, DST agar, 35° C., 20 hours, read-out: Minimum inhibitory concentration (MIC)
Procedure: as §1

[6] = test system: E. coli 159 R; assay: as above; conditions: Escherichia coli, 159R, 20 h, read-out: Minimum inhibitory concentration (MIC)
Procedure: as §1

[7] = test system: P. aeroguinosa 3351; assay: as above; conditions: read-out: Minimum inhibitory concentration (MIC)
Procedure: as §1

[8] = test system: E. coli 1346; assay: as above; conditions: Escherichia coli, DST agar, 35° C., 20 hours, read-out: Minimum inhibitory concentration (MIC)
Procedure: as §1

[9] = test system: E. coli B; assay: as above; conditions: Escherichia coli, DST agar, 35° C., 20 hours, read-out: Minimum inhibitory concentration (MIC)
Procedure: as §1

[10] = test system: Staph. aureus 25923; assay: as above; conditions: Staphylococcus aureus, DST agar, 35° C., 20 hours, read-out: Minimum inhibitory concentration (MIC)
Procedure: as §1

[11] = test system: Staph. haemolyticus 75; assay: as above; conditions: Staphylococcus haemolyticus, DST agar, 35° C., 20 hours, read-out: Minimum inhibitory concentration (MIC)
Procedure: as §1

[12] = test system: E. faecalis 6; assay: as above; conditions: read-out: Minimum inhibitory concentration (MIC)
Procedure: as §1

[13] = test system: E. coli AS-19; assay: as above; conditions: Escherichia coli, AS19, DST agar, 35° C., 20 hours, read-out: Minimum inhibitory concentration (MIC)
Procedure: as §1

[14] = test system: K. oxytoca 1082E; assay: as above; conditions: Klebsiella oxytoca, DST agar, 35° C., 20 hours, read-out: Minimum inhibitory concentration (MIC)
Procedure: as §1

[15] = test system: E. cloacae P 99; assay: as above; conditions: Enterobacter cloacae, P99, 20 h, read-out: Minimum inhibitory concentration (MIC)
Procedure: as §1

[16] = test system: E. coli DC2; assay: as above; conditions: Escherichia coli, read-out: Minimum inhibitory concentration (MIC)
Procedure: as §1

[17] = test system: E. coli K12 KEA-12 (GyrA); assay: as above; conditions: Escherichia coli, 20 h, read-out: Minimum inhibitory concentration (MIC)
Procedure: as §1

[18] = test system: S. aureus 101; assay: as above; conditions: Staphylococcus aureus, DST agar, 35° C., 20 hours, read-out: Minimum inhibitory concentration (MIC)
Procedure: as §1

[19] = test system: S. aureus 853; assay: as above; conditions: Staphylococcus aureus, DST agar, 35° C., 20 hours, read-out: Minimum inhibitory concentration (MIC)
Procedure: as §1

[20] = test system: E. coli 25922; assay: as above; conditions: read-out: Minimum inhibitory concentration (MIC)
Procedure: as §1

[21] = test system: E. coli H560; assay: as above; conditions: Escherichia coli, H560, 20 h, read-out: Minimum inhibitory concentration (MIC)
Procedure: as §1

[22] = test system: B. subtilis ATCC 585369; assay: as above; conditions: Bacillus subtilis, ATCC585369, DST agar, 35° C., 20 hours, read-out: Minimum inhibitory concentration (MIC)
Procedure: as §1

[23] = test system: S. marcescens; assay: as above; conditions: Serratia marcescens, 20 h, read-out: Minimum inhibitory concentration (MIC)
Procedure: as §1

[24] = test system: E. coli 1527 E; assay: as above; conditions: Escherichia coli, read-out: Minimum inhibitory concentration (MIC)
Procedure: as §1

[25] = Enterococcus faecalis, E. faecalis 6, DST agar, 35° C., 20 hours
[26] = E. coli DC2, DST agar, 35° C., 20 hours
[27] = Escherichia coli, E. coli 25922, DST agar, 35° C., 20 hours

SMILES	MIC [3] [µg/mL]	MIC [4] [µg/mL]	MIC [5] [µg/mL]	MIC ([7]; 20 h) [µg/mL]	MIC [8] [µg/mL]	MIC [9] [µg/mL]	MIC [10] [µg/mL]	MIC [11] [µg/mL]	MIC [12, 25] [µg/mL]	MIC [13] [µg/mL]	MIC [14] [µg/mL]	MIC [15] [µg/mL]	MIC [16, 26] [µg/mL]	MIC [17] [µg/mL]	MIC [18] [µg/mL]	MIC ([20]; Escherichia coli, 25922, 20 h) [µg/mL]	MIC [21] [µg/mL]	MIC [22] [µg/mL]	MIC [23] [µg/mL]	MIC ([24]; 1527E, 20 h) [µg/mL]	also measured
Cc1cc(-c2nc3ccc(-c4ccc5nc(-c6ccc(O)c(C)c6)[nH]c5c4)cc3[nH]2)ccc1O [Example 2]	> 128	> 128	≤ 0.25	> 128	2 (≈ 4.48 µM)	0.5 (≈ 1.12 µM)	≤ 0.25	≤ 0.25	≤ 0.25	4 (≈ 8.96 µM)	> 128	> 128	4 (≈ 8.96 µM)	> 128	0.5 (≈ 1.12 µM)	128 (≈ 287 µM)	> 128	–	–	–	MIC [1]: 1 µg/mL (≈ 2.24 µM); MIC [2]: < 0.1 µg/mL; MIC [6]: > 128 µg/mL; MIC [19]: ≤ 0.25 µg/mL
COc1cc(-c2nc3ccc(-c4ccc5nc(-c6ccc(O)c(OC)c6)[nH]c5c4)cc3[nH]2)ccc1O [Example 3, 4-[2'-(4-Hydroxy-3-methoxy-phenyl)-6,6'-dibenzimidazol-2-yl]-2-methoxy-phenyl]	> 128	> 128	8 (≈ 16.7 µM)	> 128	64 (≈ 134 µM)	16 (≈ 33.4 µM)	4 (≈ 8.36 µM)	4 (≈ 8.36 µM)	4 (≈ 8.36 µM)	> 128	> 128	> 128	8 (≈ 16.7 µM)	> 128	–	> 128	> 128	32 (≈ 66.9 µM)	> 128	> 128	–
COc1ccc(-c2nc3ccc(-c4ccc5nc(-c6ccc(OC)c(O)c6)[nH]c5c4)cc3[nH]2)cc1O [Example 4, 5-[2'-(3-Hydroxy-4-methoxy-phenyl)-6,6'-dibenzimidazol-2-yl]-2-methoxy-phenol]	> 128	> 128	0.5 (≈ 1.04 µM)	> 128	≤ 0.25	≤ 0.25	0.5 (≈ 1.04 µM)	≤ 0.25	32 (≈ 66.9 µM)	1 (≈ 2.09 µM)	> 128	> 128	2 (≈ 4.18 µM)	> 128	≤ 0.25	> 128	> 128	≤ 0.25	> 128	> 128	–
Oc1cccc(-c2nc3ccc(-c4ccc5nc(-c6cccc(O)c6)[nH]c5c4)cc3[nH]2)c1 [Example 6, 3-[2'-(3-Hydroxy-phenyl)-6,6'-dibenzimidazol-2-yl]-phenol]	> 128	> 128	2 (≈ 4.78 µM)	> 128	2 (≈ 4.78 µM)	0.5 (≈ 1.19 µM)	2 (≈ 4.78 µM)	1 (≈ 2.39 µM)	2 (≈ 4.78 µM)	1 (≈ 2.39 µM)	> 128	> 128	1 (≈ 2.39 µM)	> 128	0.12 (≈ 0.287 µM)	–	> 128	2 (≈ 4.78 µM)	> 128	> 128	MIC [20, 27]: > 128 µg/mL
Nc1ccc(-c2nc3ccc(-c4ccc5nc(-c6ccc(N)cc6)[nH]c5c4)cc3[nH]2)cc1 [Example 7, 4-[2'-(4-Amino-phenyl)-6,6'-dibenzimidazol-2-yl]-phenylamine]	> 128	> 128	2 (≈ 4.8 µM)	> 128	≤ 0.12	0.25 (≈ 0.6 µM)	1 (≈ 2.4 µM)	> 0.12	≤ 0.12	4 (≈ 9.6 µM)	> 128	> 128	≤ 0.12	> 128	–	–	> 128	2 (≈ 4.8 µM)	> 128	> 128	MIC [20, 27]: > 128 µg/mL
COc1ccc(-c2nc3ccc(-c4ccc5nc(-c6ccc(OC)cc6)[nH]c5c4)cc3[nH]2)cc1 [Example 8, 2,2'-Bis-(4-methoxy-phenyl)-6,6'-dibenzimidazole]	> 128	> 128	0.5 (≈ 1.12 µM)	> 128	8 (≈ 17.9 µM)	8 (≈ 17.9 µM)	1 (≈ 2.24 µM)	≤ 0.25	–	32 (≈ 71.7 µM)	> 128	> 128	64 (≈ 143 µM)	> 128	–	> 128	> 128	0.5 (≈ 1.12 µM)	> 128	–	MIC ([12]; Enterococcus faecalis, 6, 20 h): > 128 µg/mL; MIC ([24]; E. coli 1527 E, DST agar, 35° C., 20 hours): > 12 µg/mL
CCOc1ccc(-c2nc3ccc(-c4ccc5nc(-c6ccc(OCC)cc6)[nH]c5c4)cc3[nH]2)cc1 [Example 9, 2,2'-Bis-(4-ethoxy-phenyl)-6,6'-dibenzimidazole]	> 128	> 128	≤ 0.5	> 128	16 (≈ 33.7 µM)	> 128	2 (≈ 4.21 µM)	1 (≈ 2.11 µM)	64 (≈ 135 µM)	> 128	> 128	> 128	–	> 128	–	> 128	> 128	≤ 0.5	> 128	> 128	MIC [6]: > 128 µg/mL; MIC ([16]; DC2, 20 h): > 128 µg/mL
c1coc(-c2nc3ccc(-c4ccc5nc(-c6ccco6)[nH]c5c4)cc3[nH]2)c1 [Example 10, 2,2'-Difuran-2-yl-6,6'-dibenzimidazole]	> 128	> 128	2 (≈ 5.46 µM)	–	8 (≈ 21.8 µM)	–	4 (≈ 10.9 µM)	0.25 (≈ 0.682 µM)	–	0.5 (≈ 1.36 µM)	> 128	> 128	1 (≈ 2.73 µM)	> 128	–	–	> 128	–	> 128	> 128	MIC ([7]; P. aeroguinosa 3351, DST agar, 35° C., 20 hours): > 129 µg/mL; MIC ([12]; Enterococcus faecalis, 6, 20 h): > 128 µg/mL; MIC [20, 27]: > 128 µg/mL
N#Cc1ccc(-c2nc3ccc(-c4ccc5nc(-c6ccc(O)cc6)[nH]c5c4)cc3[nH]2)cc1 [Example 12, 4-[2'-(4-Hydroxy-phenyl)-6,6'-dibenzimidazol-2-yl]-benzonitrile]	> 128	> 128	2 (≈ 4.68 µM)	> 128	1 (≈ 2.34 µM)	2 (≈ 4.68 µM)	1 (≈ 2.34 µM)	0.25 (≈ 0.585 µM)	4 (≈ 9.36 µM)	32 (≈ 74.9 µM)	> 128	> 128	8 (≈ 18.7 µM)	> 128	4 (≈ 9.36 µM)	–	> 128	2 (≈ 4.68 µM)	–	–	MIC [6]: > 128 µg/mL; MIC [19]: 2 µg/mL (≈ 4.68 µM); MIC [20, 27]: > 128 µg/mL
